According to ChEMBL document CHEMBL1201862, “PubChem BioAssay data set” (2004):
Calls of active or inactive are those of the source.

Legend:
[1] = test system: Vero; experiment: cytotoxicity of synthesized analogs in Vero cells, SAR follow-up, cytotoxicity control for West Nile virus antiviral project, cell-based, set II (AID 2402); assay type: functional; details: Chlorocebus sabaeus
[2] = inhibitors of firefly luciferase expression or activity, dose response, H4 neuroglioma cells, luminescence (AID 1990); assay type: functional, cell-based
[3] = Luminescence Cell-Based Dose Response HTS to Identify Inhibitors of 5'UTR Stem-Loop Driven Prion Protein mRNA Translation in H4 Neuroglioblastoma Cells. [Related pubchem assays: 1827 (Project Summary), 1813 (Primary HTS)]; assay type: functional
[4] = inhibitors of SNCA 5'UTR-driven reporter translation, confirmation, H4 neuroglioma cells, luminescence (AID 1988); assay type: functional, cell-based
[5] = target: Mitogen-activated protein kinase 10 (Homo sapiens, UniProt P53779); experiment: Dose response biochemical screening assay for inhibitors of c-Jun N-Terminal Kinase 3 (JNK3). [Related pubchem assays: 746 ]
Chain of Mitogen-activated protein kinase 10 (P53779 whole entry): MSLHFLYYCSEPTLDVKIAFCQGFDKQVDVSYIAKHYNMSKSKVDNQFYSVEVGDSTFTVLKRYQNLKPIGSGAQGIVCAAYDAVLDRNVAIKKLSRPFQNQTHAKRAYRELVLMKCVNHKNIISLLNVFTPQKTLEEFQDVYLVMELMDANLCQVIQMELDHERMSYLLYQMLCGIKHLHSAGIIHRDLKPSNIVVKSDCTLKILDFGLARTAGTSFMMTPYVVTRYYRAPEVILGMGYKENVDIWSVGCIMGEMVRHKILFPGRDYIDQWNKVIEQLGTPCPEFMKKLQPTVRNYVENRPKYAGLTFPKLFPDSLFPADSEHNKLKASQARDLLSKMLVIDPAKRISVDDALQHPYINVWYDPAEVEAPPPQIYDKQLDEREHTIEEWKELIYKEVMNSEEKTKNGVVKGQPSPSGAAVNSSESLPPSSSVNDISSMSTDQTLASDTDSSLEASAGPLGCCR

[6] = target: T1, Estrogen receptor beta (Homo sapiens, UniProt Q92731);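 note: recombinant ER-beta bound to coactivator SRC1 peptide in presence of estradiol agonist; inhibitors block coactivator peptide binding and lower the FRET signal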
T1 sequence (Q92731 whole entry): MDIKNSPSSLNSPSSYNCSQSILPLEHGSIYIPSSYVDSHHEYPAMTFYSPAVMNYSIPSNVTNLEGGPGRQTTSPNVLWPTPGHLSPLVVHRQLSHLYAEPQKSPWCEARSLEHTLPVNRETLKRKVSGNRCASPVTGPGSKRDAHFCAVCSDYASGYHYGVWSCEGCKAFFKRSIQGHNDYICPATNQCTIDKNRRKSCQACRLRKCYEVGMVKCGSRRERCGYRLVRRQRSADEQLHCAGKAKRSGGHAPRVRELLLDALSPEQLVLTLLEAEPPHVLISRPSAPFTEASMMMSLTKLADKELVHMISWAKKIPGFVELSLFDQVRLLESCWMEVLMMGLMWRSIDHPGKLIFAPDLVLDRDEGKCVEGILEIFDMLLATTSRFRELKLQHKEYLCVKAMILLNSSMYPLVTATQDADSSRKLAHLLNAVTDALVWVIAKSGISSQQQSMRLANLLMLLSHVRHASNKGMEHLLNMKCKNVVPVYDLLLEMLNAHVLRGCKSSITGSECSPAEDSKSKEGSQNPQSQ

[7] = microbe, parasite or virus in culture; assay type: functional; details: Mycobacterium tuberculosis
[8] = Luminescence Cell-Based Dose Retest to Confirm Inhibitors of Cancer Stem Cells. [Related pubchem assays (depositor defined):AID2717, AID2721]; assay type: functional; details: Homo sapiens
[9] = target: T2, Ubiquitin-conjugating enzyme E2 N (Homo sapiens, UniProt P61088); assay type: functional;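 note: Dose-response confirmation in a TR-FRET assay detecting UBC13-driven polyubiquitin chain formation, inhibition measured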
T2 sequence (P61088 whole entry): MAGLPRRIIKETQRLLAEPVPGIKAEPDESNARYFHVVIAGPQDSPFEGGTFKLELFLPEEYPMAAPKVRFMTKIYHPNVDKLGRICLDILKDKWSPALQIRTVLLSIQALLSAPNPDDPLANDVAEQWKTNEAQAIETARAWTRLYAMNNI

[10] = test system: INS1; experiment: beta cell apoptosis inhibitors, cytokine rescue, dose response, luminescence, retest (AID 449756); assay type: functional, cell-based; details: Rattus norvegicus;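 note: cell death triggered by IL-1 beta plus TNF-alpha plus IFN-gamma mixture; protective hits raise ATP signal compared with cytokine alone wells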
[11] = Shn3 3'UTR reporter inhibitors, dose response, cell-based, Clone20 osteoblasts, firefly luciferase, cherry-picked (AID 624132); assay type: functional;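 note: firefly luciferase luminescence from reporter carrying the Shn3 3'UTR in osteoblasts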
[12] = control 3'UTR Renilla luciferase suppression, dose response, counter-screen for Shn3 inhibitor project, cell-based, Clone20-Shn3RL, cherry-picked (AID 624133); assay type: functional
[13] = half-maximal inhibitory concentration for glucagon-like peptide-1 release, STC-1 cell line, dose-response (AID 1117345); assay type: functional, cell-based
[14] = Glucagon-like peptide 1 release potency, NCI-H716 cell line, dose-response, half-maximal inhibitory concentration (AID 1117344); assay type: functional, cell-based
[15] = target: T1, Estrogen receptor beta; experiment: ERβ–SRC-3 coactivator interaction inhibitors, confirmation, orthogonal assay, biochemical, ELISA, streptavidin-HRP readout (AID 1060)
[16] = target: T3, Replicative DNA helicase DnaB (Mycobacterium tuberculosis, UniProt P9WMR3); experiment: DnaB intein splicing inhibitors, dose response, biochemical, cell-free fluorescence (AID 449749); assay type: functional
T3 sequence (P9WMR3 whole entry): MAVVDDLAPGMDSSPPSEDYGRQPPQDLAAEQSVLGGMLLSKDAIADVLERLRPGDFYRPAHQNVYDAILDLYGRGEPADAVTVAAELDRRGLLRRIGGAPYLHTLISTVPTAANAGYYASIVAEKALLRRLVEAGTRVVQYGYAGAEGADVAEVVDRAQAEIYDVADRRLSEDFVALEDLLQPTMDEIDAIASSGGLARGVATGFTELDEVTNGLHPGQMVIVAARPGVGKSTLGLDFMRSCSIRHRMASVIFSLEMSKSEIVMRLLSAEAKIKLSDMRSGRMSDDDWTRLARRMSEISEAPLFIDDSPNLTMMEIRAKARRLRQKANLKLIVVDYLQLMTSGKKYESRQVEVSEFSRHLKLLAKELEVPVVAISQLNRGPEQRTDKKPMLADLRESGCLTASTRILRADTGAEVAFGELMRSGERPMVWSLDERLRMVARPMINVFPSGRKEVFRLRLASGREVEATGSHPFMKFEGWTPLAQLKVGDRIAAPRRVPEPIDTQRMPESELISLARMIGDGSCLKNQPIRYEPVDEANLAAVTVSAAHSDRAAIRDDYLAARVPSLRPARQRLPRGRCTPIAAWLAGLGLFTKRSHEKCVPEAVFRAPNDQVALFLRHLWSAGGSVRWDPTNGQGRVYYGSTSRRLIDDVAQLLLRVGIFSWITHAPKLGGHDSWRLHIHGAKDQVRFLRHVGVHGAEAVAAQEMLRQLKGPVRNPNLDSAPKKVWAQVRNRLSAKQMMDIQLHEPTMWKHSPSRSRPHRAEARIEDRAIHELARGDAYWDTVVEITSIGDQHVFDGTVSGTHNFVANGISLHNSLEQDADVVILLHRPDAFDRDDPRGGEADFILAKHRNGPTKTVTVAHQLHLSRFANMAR

[17] = target: T4, Protein RecA (Mycobacterium tuberculosis, UniProt P9WHJ3); experiment: Fluorescence Cell-Free Homogeneous Dose Retest to Identify Inhibitors of RecA-Intein Splicing Activity. [Related pubchem assays (depositor defined):AID2097, AID2223, AID489010, AID492950]; assay type: functional
T4 sequence (P9WHJ3 whole entry): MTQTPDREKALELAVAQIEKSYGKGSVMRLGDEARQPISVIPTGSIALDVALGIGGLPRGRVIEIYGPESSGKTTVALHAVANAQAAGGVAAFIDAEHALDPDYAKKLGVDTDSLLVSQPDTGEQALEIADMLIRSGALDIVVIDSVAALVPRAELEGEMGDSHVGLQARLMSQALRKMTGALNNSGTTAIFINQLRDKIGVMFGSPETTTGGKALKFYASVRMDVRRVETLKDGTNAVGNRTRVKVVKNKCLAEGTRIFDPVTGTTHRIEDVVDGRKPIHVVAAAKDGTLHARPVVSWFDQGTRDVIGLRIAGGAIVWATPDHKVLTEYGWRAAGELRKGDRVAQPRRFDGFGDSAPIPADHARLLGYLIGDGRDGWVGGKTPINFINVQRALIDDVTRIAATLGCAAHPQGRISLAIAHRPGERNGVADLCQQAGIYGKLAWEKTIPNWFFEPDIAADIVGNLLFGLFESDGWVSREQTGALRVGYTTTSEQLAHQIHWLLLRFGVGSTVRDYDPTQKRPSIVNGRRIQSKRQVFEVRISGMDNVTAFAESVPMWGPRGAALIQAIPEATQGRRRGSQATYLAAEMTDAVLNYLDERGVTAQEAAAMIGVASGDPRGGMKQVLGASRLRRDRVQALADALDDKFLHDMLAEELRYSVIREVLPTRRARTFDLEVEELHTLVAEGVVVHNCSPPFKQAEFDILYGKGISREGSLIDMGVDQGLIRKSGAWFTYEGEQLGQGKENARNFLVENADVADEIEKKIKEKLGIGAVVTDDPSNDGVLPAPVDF

[18] = target: T5, Sentrin-specific protease 8 (Homo sapiens, UniProt Q96LD8); assay type: functional
T5 sequence (Q96LD8 whole entry): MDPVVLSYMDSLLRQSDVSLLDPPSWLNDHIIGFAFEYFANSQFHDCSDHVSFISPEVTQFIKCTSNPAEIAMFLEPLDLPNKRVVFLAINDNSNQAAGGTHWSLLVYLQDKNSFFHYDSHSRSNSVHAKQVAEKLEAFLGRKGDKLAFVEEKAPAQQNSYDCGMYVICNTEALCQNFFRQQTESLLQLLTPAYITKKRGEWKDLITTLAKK

[19] = target: T5, Sentrin-specific protease 8; assay type: functional; remark: listed apart in the source
[20] = target: T6, Heat shock factor protein 1 (Mus musculus, UniProt P38532); experiment: inhibition of MG132-induced HSE-luciferase signal, confirmation, cell-based, NIH3T3, luminescence, dose retest (AID 2382); assay type: functional;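 note: NIH3T3 fibroblasts with HSF1-driven luciferase reporter stressed by proteasome inhibitor MG132; luminescence from HSF1-driven luciferase expression after 8 hours of MG132 stress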
T6 sequence (P38532 whole entry): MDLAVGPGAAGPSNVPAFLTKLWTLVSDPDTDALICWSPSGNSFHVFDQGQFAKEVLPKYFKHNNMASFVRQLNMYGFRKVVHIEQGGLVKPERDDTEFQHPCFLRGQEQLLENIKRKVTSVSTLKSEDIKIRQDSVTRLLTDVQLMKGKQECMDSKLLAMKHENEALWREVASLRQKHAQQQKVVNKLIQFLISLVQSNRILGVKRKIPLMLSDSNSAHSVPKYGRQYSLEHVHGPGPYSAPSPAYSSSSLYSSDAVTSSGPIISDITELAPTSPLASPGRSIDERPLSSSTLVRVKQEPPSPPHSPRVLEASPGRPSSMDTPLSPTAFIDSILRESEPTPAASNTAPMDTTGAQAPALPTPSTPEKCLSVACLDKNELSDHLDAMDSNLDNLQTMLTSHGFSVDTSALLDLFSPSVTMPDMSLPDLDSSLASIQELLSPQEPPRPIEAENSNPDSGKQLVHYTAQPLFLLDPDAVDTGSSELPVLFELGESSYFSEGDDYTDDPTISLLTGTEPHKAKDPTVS

[21] = target: Ephrin type-A receptor 4 (Mus musculus, UniProt Q03137); experiment: inhibitors of EphA4 binding to KYL peptide, primary screen, biochemical, colorimetric, mouse EphA4 (AID 689); assay type: functional
Chain of Ephrin type-A receptor 4 (Q03137 whole entry): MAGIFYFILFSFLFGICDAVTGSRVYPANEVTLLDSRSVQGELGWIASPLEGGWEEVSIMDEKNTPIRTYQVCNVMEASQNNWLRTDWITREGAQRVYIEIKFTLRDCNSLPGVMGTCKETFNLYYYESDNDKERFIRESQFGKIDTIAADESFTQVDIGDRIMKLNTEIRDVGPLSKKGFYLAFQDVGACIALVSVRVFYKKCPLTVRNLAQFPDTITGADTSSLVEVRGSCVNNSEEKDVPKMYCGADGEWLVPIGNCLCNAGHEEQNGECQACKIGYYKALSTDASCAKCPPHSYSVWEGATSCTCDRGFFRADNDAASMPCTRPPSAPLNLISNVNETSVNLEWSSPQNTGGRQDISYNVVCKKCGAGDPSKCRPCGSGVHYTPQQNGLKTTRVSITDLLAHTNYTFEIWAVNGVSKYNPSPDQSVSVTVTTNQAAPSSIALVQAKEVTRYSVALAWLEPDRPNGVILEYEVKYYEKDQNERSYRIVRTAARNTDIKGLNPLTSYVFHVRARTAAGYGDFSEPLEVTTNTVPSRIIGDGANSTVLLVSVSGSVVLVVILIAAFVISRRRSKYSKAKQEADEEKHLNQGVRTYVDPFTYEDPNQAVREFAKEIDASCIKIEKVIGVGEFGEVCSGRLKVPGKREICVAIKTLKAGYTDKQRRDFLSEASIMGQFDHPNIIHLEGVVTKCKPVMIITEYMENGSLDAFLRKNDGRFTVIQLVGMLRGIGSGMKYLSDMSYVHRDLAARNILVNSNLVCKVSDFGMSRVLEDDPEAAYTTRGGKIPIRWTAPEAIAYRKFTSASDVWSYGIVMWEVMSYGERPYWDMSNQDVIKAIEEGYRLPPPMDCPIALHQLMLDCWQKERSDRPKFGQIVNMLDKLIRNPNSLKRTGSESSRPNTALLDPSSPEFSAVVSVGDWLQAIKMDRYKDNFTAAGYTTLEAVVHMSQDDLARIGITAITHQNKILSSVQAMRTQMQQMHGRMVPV

[22] = target: T7, Aryl hydrocarbon receptor (Homo sapiens, UniProt P35869); experiment: Luminescence-based cell-based high throughput dose response assay for activators of the Aryl Hydrocarbon Receptor (AHR). [Related pubchem assays: 2796 (Primary screen (AHR activators in singlicate)), 2845 (Confirmation screen (AHR activators in triplicate)), 434939 (Counterscreen (PXR activators in triplicate)), 2804 (Summary (AHR activators))]; assay type: ADME
T7 sequence (P35869 whole entry): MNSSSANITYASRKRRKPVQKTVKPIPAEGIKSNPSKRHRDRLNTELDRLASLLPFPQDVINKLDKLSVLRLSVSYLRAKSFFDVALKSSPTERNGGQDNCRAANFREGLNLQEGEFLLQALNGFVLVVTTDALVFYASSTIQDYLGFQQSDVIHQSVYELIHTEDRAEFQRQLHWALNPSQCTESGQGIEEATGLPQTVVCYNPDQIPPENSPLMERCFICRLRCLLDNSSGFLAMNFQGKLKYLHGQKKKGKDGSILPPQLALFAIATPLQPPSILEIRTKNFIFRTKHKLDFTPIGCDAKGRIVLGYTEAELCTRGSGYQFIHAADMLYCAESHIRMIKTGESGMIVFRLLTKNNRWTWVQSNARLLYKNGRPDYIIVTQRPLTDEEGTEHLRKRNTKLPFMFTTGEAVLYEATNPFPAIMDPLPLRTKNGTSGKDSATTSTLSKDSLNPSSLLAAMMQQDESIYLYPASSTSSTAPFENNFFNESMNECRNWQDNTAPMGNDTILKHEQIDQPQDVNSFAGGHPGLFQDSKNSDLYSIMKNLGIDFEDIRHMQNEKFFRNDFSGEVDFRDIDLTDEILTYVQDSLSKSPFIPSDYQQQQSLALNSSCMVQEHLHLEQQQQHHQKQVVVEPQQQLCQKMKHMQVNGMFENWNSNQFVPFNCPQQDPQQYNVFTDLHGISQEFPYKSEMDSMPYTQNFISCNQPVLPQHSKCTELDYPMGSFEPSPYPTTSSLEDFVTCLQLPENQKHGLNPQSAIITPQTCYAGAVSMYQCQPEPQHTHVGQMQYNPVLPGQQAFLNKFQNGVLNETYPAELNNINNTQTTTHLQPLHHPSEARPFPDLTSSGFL

[23] = target: T8, Fatty acid synthase (Homo sapiens, UniProt P49327); experiment: FAS thioesterase domain inhibitors, dose response, biochemical, endpoint fluorescence intensity, uHTS hits (AID 624327); assay type: functional;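 note: fluorescence from hydrolysis of an O-methyl fluorescein acyl ester substrate by the enzyme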
T8 sequence (P49327 whole entry, the tested form may be a part): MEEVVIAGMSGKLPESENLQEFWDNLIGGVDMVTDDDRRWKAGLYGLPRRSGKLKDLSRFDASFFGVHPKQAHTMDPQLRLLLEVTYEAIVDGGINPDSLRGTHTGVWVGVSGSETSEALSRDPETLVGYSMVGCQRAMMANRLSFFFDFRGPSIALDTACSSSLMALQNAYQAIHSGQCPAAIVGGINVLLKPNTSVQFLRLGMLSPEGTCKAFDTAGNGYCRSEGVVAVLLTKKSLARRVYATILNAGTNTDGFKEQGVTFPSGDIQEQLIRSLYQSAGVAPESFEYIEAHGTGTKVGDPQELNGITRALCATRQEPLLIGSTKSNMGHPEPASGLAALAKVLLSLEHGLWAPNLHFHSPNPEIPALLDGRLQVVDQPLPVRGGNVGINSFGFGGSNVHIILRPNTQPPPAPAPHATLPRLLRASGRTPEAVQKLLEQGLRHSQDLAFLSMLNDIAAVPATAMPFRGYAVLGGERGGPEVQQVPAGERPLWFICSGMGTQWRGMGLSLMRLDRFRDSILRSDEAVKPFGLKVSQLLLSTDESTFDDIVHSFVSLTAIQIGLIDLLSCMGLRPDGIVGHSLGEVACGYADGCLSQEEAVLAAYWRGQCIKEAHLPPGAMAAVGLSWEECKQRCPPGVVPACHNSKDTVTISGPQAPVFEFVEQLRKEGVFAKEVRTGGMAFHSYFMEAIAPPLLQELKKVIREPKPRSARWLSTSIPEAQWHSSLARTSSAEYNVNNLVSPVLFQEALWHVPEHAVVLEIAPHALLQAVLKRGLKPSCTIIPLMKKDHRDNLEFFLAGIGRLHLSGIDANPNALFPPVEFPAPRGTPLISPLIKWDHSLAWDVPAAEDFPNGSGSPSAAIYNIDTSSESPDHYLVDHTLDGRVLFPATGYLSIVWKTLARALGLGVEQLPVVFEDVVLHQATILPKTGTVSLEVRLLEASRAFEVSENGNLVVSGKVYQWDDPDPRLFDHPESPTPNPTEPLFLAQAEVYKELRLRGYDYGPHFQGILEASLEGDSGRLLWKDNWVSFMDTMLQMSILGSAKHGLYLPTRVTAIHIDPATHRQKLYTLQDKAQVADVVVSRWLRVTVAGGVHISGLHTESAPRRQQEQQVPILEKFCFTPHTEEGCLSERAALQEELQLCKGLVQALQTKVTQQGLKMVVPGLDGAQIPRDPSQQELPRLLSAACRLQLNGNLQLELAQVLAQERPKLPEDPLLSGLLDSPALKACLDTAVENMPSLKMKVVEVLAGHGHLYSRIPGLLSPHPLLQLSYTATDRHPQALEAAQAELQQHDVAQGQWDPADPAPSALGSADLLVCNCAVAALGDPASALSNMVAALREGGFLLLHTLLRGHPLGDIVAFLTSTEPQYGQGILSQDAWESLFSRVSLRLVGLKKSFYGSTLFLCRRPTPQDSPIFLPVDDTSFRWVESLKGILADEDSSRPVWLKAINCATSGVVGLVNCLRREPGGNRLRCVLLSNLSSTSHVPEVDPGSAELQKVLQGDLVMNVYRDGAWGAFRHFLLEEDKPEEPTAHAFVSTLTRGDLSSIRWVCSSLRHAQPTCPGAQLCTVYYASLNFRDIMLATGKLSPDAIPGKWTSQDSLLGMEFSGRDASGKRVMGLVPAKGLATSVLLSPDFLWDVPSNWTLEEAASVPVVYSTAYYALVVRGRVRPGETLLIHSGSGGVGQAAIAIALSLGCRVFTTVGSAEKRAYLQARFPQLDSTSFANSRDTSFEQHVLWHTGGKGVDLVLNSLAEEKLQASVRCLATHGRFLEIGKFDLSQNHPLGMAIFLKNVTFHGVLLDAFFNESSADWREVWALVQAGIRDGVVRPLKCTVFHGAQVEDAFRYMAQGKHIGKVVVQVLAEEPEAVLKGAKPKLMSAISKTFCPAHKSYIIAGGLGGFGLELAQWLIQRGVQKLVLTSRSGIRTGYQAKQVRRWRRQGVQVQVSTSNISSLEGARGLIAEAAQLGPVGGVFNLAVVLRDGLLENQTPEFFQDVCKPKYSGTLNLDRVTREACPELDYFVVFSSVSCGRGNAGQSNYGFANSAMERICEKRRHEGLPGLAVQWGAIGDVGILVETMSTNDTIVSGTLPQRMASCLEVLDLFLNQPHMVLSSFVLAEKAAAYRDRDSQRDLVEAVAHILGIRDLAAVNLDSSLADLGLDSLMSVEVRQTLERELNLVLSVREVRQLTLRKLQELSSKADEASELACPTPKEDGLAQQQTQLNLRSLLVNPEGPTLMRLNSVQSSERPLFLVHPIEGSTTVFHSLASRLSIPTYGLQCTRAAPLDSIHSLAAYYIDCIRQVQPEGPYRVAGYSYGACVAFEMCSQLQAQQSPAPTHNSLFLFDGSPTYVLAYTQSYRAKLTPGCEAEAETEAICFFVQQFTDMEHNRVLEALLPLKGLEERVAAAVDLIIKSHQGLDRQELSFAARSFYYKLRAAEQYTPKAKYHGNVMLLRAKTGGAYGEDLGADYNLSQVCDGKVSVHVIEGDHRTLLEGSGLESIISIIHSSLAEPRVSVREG

[24] = target: T8, Fatty acid synthase; experiment: FAS thioesterase domain inhibitors, dose response, biochemical, kinetic fluorescence intensity (AID 624326); assay type: functional;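 note: rate of fluorescence rise from hydrolysis of a fluorogenic O-methyl fluorescein ester substrate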

OC1c2c(F)cccc2N=C2CCCCN21 (stereo not drawn)
CC50 [1]: > 200 µM (active)

CC1=C(C(=O)OC2CCCCCCC2)C(c2ccc(O)cc2)NC(=O)N1 (stereo not drawn)
EC50 [2]: 21.1 µM (active) | EC50 [3]: > 120 µM (not active) | EC50 [4]: 23.9 µM (active) | IC50 [5]: 41.9 µM (not active)

Cc1cc(=O)[nH]c(SCC(=O)Nc2nc3c(s2)CCCC3)n1
IC50 [6]: > 50 µM (not active)

CCCCCCCCNC(C)C(O)c1ccc(SC(C)C)cc1 (stereo not drawn) [SULOCTIDIL]
CC50 [7]: 17.3 µM (active) | AC50 [8]: 2.11 µM (active) | IC50 [9]: > 20 µM (inactive) | AC50 [10]: 8.21 µM (active) | AC50 [11]: 3.94 µM (active) | AC50 [12]: 8.28 µM (active) | IC50 [13]: > 40 µM (inactive) | IC50 [14]: 13 µM (inactive)

O=C(CCCn1c(=S)[nH]c2cc3c(cc2c1=O)OCO3)N1CCc2ccccc2C1
IC50 [6]: > 50 µM (not active)

CC1=CC2(O)OCCN(CCO)C2=CC1=O (stereo not drawn)
IC50 [15]: < 0.023 µM (not active) | AC50 [16]: 16.9 µM (active) | EC50 [17]: 10.2 µM (active) | IC50 [18]: > 100 µM (inactive) | IC50 [19]: 22.3 µM (active)

COc1ccc(OC)c(NC(=O)CSc2nc3ccccc3cc2Cc2ccccc2)c1
EC50 [20]: > 195 µM (not active) | IC50 [21]: > 100 µM (not active)

COC(=O)c1cc(C(=O)Nc2nnc(C3CC3)s2)cc([N+](=O)[O-])c1
EC50 [22]: 3.02 µM (active) | IC50 [23]: 9.7 µM (active) | IC50 [24]: 13.8 µM (active)

CCOc1ccc(NC(=O)c2cc3ccccc3cc2OC)cc1
EC50 [22]: 2.17 µM (active)

O=C1/C(=C\c2nc3ccccc3[nH]2)SC(=S)N1c1ccc(F)cc1
IC50 [21]: > 100 µM (not active)

Cn1nc(C(=O)Nc2sccc2C(N)=O)ccc1=O
IC50 [15]: > 50 µM (not active)
